Test systems include Bacillus cereus AS1.1846; Pseudomonas aeruginosa; Rothia nasimurium; Staphylococcus sciuri; Aerococcus viridans; Escherichia coli O111; Klebsiella pneumoniae; Pediococcus acidilactici; Escherichia coli 1106; Bacillus megaterium; Escherichia coli D31; Fusarium haematococcum; Enterobacter cloacae; Salmonella typhimurium; Fusarium culmorum; Trichoderma viride; Ascochyta pisi; Fusarium oxysporum; Bacillus subtilis; Neurospora crassa; Botrytis cinerea; Alternaria brassicicola; Micrococcus luteus; Escherichia coli D22.

Holding throughout (assay): ≥ marks a high value that may be exact or a test limit, other limits are often not marked, values filed in µg/mL are converted to µM
Experiment [1] concerns Clostridium sporogenes CICC 10385.
Experiment [2] relates to Escherichia coli ATCC 25922.
In experiment [3] the test system is Salmonella enterica subsp. enterica serovar Paratyphi A CICC 21501.
Experiment [4] deals with Salmonella enterica subsp. enterica serovar Paratyphi B CICC 21495.
Experiment [5] concerns Geobacillus stearothermophilus CICC 20139.
In experiment [6] the test system is Shigella flexneri CMCC 51571.
The test system of experiment [7] is Staphylococcus aureus CMCC 26003.
For experiment [8], the system named is Proteus mirabilis CMCC 49005.
For experiment [9], the system named is Serratia marcescens CICC 10187.
Experiment [10] relates to Bacillus subtilis ATCC 9943.
For experiment [11], the system named is Salmonella enterica subsp. enterica serovar Enteritidis CICC 21527.
Experiment [12] deals with Clostridium perfringens CICC 22949.
Experiment [13] concerns Micrococcus luteus CMCC 28000.
In experiment [14] the test system is Bacillus pumilus CMCC 63202.
Experiment [15] concerns Pseudomonas fluorescens AS1.1802.
Experiment [16] relates to Bacillus megaterium CICC 10448.
The subject of experiment [17] is Salmonella typhimurium CMCC 51005.
Experiment [18] deals with Alicyclobacillus acidoterrestris CICC 10374.
Experiment [19] concerns Paenibacillus polymyxa CGMCC 4314.
Experiment [20] concerns Clostridioides difficile CICC 22951.
Experiment [21] has as its system Staphylococcus aureus ATCC 29213.
For experiment [22], the system named is Staphylococcus aureus NCDC 0111.
The subject of experiment [23] is Bacillus cereus NCDC 0240.
The subject of experiment [24] is Escherichia coli MTCC 0723.
Experiment [25] has as its system Acinetobacter johnsonii NCDC 0072.
In experiment [26] the test system is Pseudomonas aeruginosa NCDC 0105.
The subject of experiment [27] is Pseudomonas aeruginosa ATCC 27853.
Experiment [28] has as its system Listeria monocytogenes ATCC 19111.
Experiment [29] deals with Salmonella enterica subsp. enterica serovar Typhimurium ATCC 14028.
In experiment [30] the test system is Enterococcus faecalis V583.
Experiment [31] deals with Pectobacterium carotovorum.

By MIC is commonly meant the lowest concentration found to suppress growth. A higher MIC goes with a need for much substance.

In brackets after ≈: the same amount, converted by molar mass.

On to `CSCC[C@H](NC(=O)[C@H](CCCCN)NC(=O)[C@H](CCC(N)=O)NC(=O)[C@H](Cc1c[nH]c2ccccc12)NC(=O)[C@@H](N)Cc1ccccc1)C(=O)N[C@@H](CO)C(=O)N[C@@H](Cc1ccccc1)C(=O)N[C@@H](C)C(=O)O` [FWQKMSFA], for which the minimal inhibitory concentration (MIC) is 30.6 µM (≈ 32 µg/mL) in experiment [1]; 61.3 µM (≈ 64 µg/mL) in experiment [2]; 15.3 µM (≈ 16 µg/mL) in experiment [3]; 15.3 µM (≈ 16 µg/mL) in [4]; 30.6 µM (≈ 32 µg/mL) in experiment [5]; 30.6 µM (≈ 32 µg/mL) in experiment [6]. The MIC stood at 15.3 µM (≈ 16 µg/mL) in experiment [7]; 15.3 µM (≈ 16 µg/mL) in experiment [8]; 15.3 µM (≈ 16 µg/mL) in experiment [9]; 15.3 µM (≈ 16 µg/mL) in experiment [10]; 15.3 µM (≈ 16 µg/mL) in experiment [11]; 30.6 µM (≈ 32 µg/mL) in experiment [12]. Moreover, the MIC in experiment [13] was 15.3 µM (≈ 16 µg/mL); in [14] it was 15.3 µM (≈ 16 µg/mL); in [15], 15.3 µM (≈ 16 µg/mL); in experiment [16], 15.3 µM (≈ 16 µg/mL); in [17], 30.6 µM (≈ 32 µg/mL); in [18] it was 15.3 µM (≈ 16 µg/mL). In addition, the minimal inhibitory concentration (MIC) against Bacillus cereus AS1.1846 is 15.3 µM (≈ 16 µg/mL); in [19], 15.3 µM (≈ 16 µg/mL); in experiment [20], 30.6 µM (≈ 32 µg/mL).

In the case of `N[C@@H](CC(=O)O)C(=O)N[C@@H](CCC(=O)O)C(=O)N[C@@H](CC(=O)O)C(=O)N[C@@H](CC(=O)O)C(=O)N[C@@H](CC(=O)O)C(=O)O` [DEDDD], the minimal inhibitory concentration (MIC) is 82.3 µM (≈ 50 µg/mL) with Pseudomonas aeruginosa; 82.3 µM (≈ 50 µg/mL) in experiment [2]; 16.5 µM (≈ 10 µg/mL) against Rothia nasimurium; no less than 82.3 µM in the experiment with Staphylococcus sciuri; no less than 32.9 µM in the experiment on Aerococcus viridans; 16.5 µM (≈ 10 µg/mL) in experiment [21]. Moreover, the figures for the MIC in the experiment with Escherichia coli O111 and against Klebsiella pneumoniae were no less than 82.3 µM and 82.3 µM (≈ 50 µg/mL), respectively.

As to `CC[C@H](C)[C@H](NC(=O)[C@H](CO)NC(=O)[C@H](Cc1c[nH]c2ccccc12)NC(=O)[C@@H]1CCCN1C(=O)[C@@H](NC(=O)[C@H](C)N)[C@@H](C)CC)C(=O)N[C@@H](Cc1c[nH]c2ccccc12)C(=O)N[C@@H](Cc1c[nH]c2ccccc12)C(=O)N[C@@H](Cc1cnc[nH]1)C(=O)N[C@@H](CC(C)C)C(=O)N[C@@H](CC(C)C)C(=O)N[C@@H](Cc1ccccc1)C(=O)N[C@@H](CCCCN)C(=O)NCC(=O)O` [AIPWSIWWHLLFKG], the MIC is 12.5 µM (≈ 21.9 µg/mL) in experiment [22]; no less than 50 µM in experiment [23]; no less than 50 µM in [24]; 25 µM (≈ 43.9 µg/mL) in experiment [25]; no less than 200 µM in experiment [26]; 200 µM (≈ 351 µg/mL) in experiment [27]. For the same compound, the minimum inhibitory concentration (MIC) stood at 1.5 µM (≈ 2.63 µg/mL) in [28], 0.8 µM (≈ 1.4 µg/mL) in experiment [21] and 3 µM (≈ 5.26 µg/mL) in experiment [29].

`CC[C@H](C)[C@H](N)C(=O)N[C@H](C(=O)N[C@@H](CO)C(=O)N[C@@H](CO)C(=O)N[C@@H](CCSC)C(=O)N[C@@H](Cc1ccccc1)C(=O)N[C@H](C(=O)N[C@@H](CO)C(=O)N[C@@H](C)C(=O)O)C(C)C)C(C)C` [IVSSMFVSA] gave an MIC in experiment [30] of no less than 133 µM.

For the compound `CC[C@H](C)[C@H](NC(=O)[C@@H](NC(=O)[C@@H]1CCCN1C(=O)[C@@H](NC(=O)[C@@H]1CCCN1C(=O)[C@@H](N)CCCCN)C(C)C)[C@@H](C)CC)C(=O)N[C@@H](Cc1ccc(O)cc1)C(=O)N[C@H]1CSSC[C@@H](C(=O)N[C@@H](CCC(N)=O)C(=O)N[C@@H](CCCN=C(N)N)C(=O)N[C@@H](CCSC)C(=O)O)NC(=O)[C@H](CCCCN)NC(=O)CNC(=O)[C@H]([C@@H](C)O)NC(=O)[C@H](CCCN=C(N)N)NC(=O)[C@H](CCCN=C(N)N)NC(=O)[C@H](CC(N)=O)NC1=O` [KPVPIIYCNRRTGKCQRM], the MIC was found to be 28.3 µM (≈ 61.1 µg/mL) with Pseudomonas aeruginosa; 28.3 µM (≈ 61.1 µg/mL) in the experiment on Pediococcus acidilactici; 0.849 µM (≈ 1.83 µg/mL) against Escherichia coli 1106; 3.54 µM (≈ 7.64 µg/mL) against Bacillus megaterium; 0.424 µM (≈ 0.917 µg/mL) in the experiment on Escherichia coli D31; 7.07 µM (≈ 15.3 µg/mL) with Fusarium haematococcum. In addition, the MIC in experiment [31] came out at 28.3 µM (≈ 61.1 µg/mL); in the experiment on Enterobacter cloacae, 1.73 µM (≈ 3.74 µg/mL); against Salmonella typhimurium it was 1.73 µM (≈ 3.74 µg/mL); in the experiment on Fusarium culmorum, 7.07 µM (≈ 15.3 µg/mL); in the experiment on Trichoderma viride it was 3.54 µM (≈ 7.64 µg/mL); in the experiment on Aerococcus viridans, 0.849 µM (≈ 1.83 µg/mL). Moreover, the MIC in the experiment with Ascochyta pisi turned out to be 14.1 µM (≈ 30.6 µg/mL); in the experiment with Fusarium oxysporum, 28.3 µM (≈ 61.1 µg/mL); against Bacillus subtilis, 28.3 µM (≈ 61.1 µg/mL); against Neurospora crassa, 3.54 µM (≈ 7.64 µg/mL); against Botrytis cinerea, 1.73 µM (≈ 3.74 µg/mL); in the experiment with Alternaria brassicicola, 3.54 µM (≈ 7.64 µg/mL). Moreover, the minimum inhibitory concentration (MIC) came out at 1.73 µM (≈ 3.74 µg/mL) against Micrococcus luteus, 0.424 µM (≈ 0.917 µg/mL) against Escherichia coli D22 and 1.73 µM (≈ 3.74 µg/mL) in the experiment on Klebsiella pneumoniae.

The record behind these values is DBAASP.
